Reference: US10314894B2, “Treatment of cardio-renal disease using PCSK6” (THE CLEVELAND CLINIC FOUNDATION, priority 2014, dated 2019)
Peptide text beside a SMILES is read from it.

Tested on: corin activation cleavage
Experiment: Protease inhibitors on corin activation cleavage in HEK293 cells expressing corin (Western blotting)
Assay type: cell-based, human
Conditions: 24 h, transfected HEK293 cells
Experimental: HEK293 cells were cultured in DMEM with 10% fetal bovine serum (FBS). HL-1 cardiomyocytes were cultured in Claycomb medium with 10% FBS, and 4 mM L-glutamine. All cells were cultured at 37° C. in humidified incubators with 5% CO2.
HEK293 and HL-1 cells were transfected with corin or PCSK6 expression plasmids. After 48-72 h, cells were lysed in a buffer containing 25 mM Tris-HCl, pH 7.4, 150 mM NaCl, 1 mM EDTA, 1% (v/v) NP-40, and 1% (v/v) protease inhibitor cocktail. Recombinant corin and PCSK6 proteins were immunoprecipitated with an anti-V5 or anti-flag antibody. Western blotting was carried out to analyze corin expression and activation or PCSK6 expression with or without reducing agents. Percentage of corin activation (corin-p vs. corin fragments) was quantified by densitometric analysis of Western blots.
To identify the corin activator, corin activation cleavage was examined in HEK293 and HL-1 cells expressing corin in the presence of protease inhibitors including benzamidine (5 mM), GM6001 (50 μM), dec-RVKR-cmk (20 μM), or ALLM (N-acetyl-leucyl-leucyl-methionine 50 μM). Liao et al., J Biol Chem 282, 27728-27735 (2007). The inhibitors were added to the cells in separate wells. After 24 h, cell lysates were prepared and corin protein was analyzed by Western blotting.

SMILES | corin activation (~40-kDa band reduced, ~190-kDa zymogen band increased) (benzamidine 5 mM) | corin activation (~40-kDa band reduced, ~190-kDa zymogen band increased) (dec-RVKR-cmk 20 μM) | corin activation (~40-kDa band reduced, ~190-kDa zymogen band increased) (dec-RVKR-cmk 20 μM, listed as RVKR-cmk)
N=C(N)c1ccccc1 [benzamidine] | corin activation cleavage was inhibited | – | –
CCCCCCCCCC(=O)N[C@@H](CCCN=C(N)N)C(=O)N[C@H](C(=O)N[C@@H](CCCCN)C(=O)N[C@@H](CCCN=C(N)N)C(=O)CCl)C(C)C [dec-RVKR-cmk] (HELM PEPTIDE1{[CCCCCCCCCC(=O)[*:2]].R.V.K.R.[ClC[*:1]]}$$$$V2.0) | – | corin activation was inhibited | corin activation cleavage was inhibited
